The text below walks through data of paper PMC6021034, “Novel FFA1 (GPR40) agonists containing spirocyclic periphery: polar azine periphery as a driver of potency” (Journal of Enzyme Inhibition and Medicinal Chemistry, 2016).

One test addresses human GPR40 (Homo sapiens, UniProt O14842). Put plainly: Calcium flux (FLIPR, Fluo-8) agonist assay in CHO cells stably expressing human GPR40. It is filed as cell-based. As to conditions: for % FFA1 activation at 5 μM: relative to GPR40 activation by 20 μM of GW9509, n = 2. As to the method:
Determination of agonistic activity of compounds against FFA1 (GPR40) receptor
CHO cells stably expressing human GPR40 (stable CHO-GPR40 line created at Enamine Ltd., Kyiv, Ukraine) were seeded (12 500 cells/well) into 384-well black-wall, clear-bottom microtiter plates 24 h prior to assay. Cells were loaded for 1 h with fluorescent calcium dye (Fluo-8 Calcium Assay kit, Abcam, ab112129, Cambridge, UK) and tested using fluorometric imaging plate reader (FLIPR Tetra® High Throughput Cellular Screening System, Molecular Devices Corp., Sunnyvale, CA). Maximum change in fluorescence over base line was used to determine agonist response. A potent and selective agonist for FFA1 (GPR40) GW9508 (Selleckchem, S8014) was tested with the test compounds as a positive control. Concentration response curve data were fitted using Molecular Devices ScreenWorks® System Control Software (Molecular Devices). The half-maximal effective concentration was determined from these curves plotted in “% FFA1 activation − log[drug]” coordinates and % maximum efficacy was related to that of the reference compounds GW9508.
On the technique in general: A change in cytosolic calcium serves as a functional read-out for many receptors and channels.

The subject of test [1] is FFA1. Particulars: cited from earlier work.
Test [2] concerns FFA1. More on the design: method as in PMID 24900210. As to conditions: cited from earlier work.
The mark [3] stands for this setting: dose-response (% FFA1 activation) mode, read-out: EC50.

By EC50 is commonly meant the concentration at which the effect is half-maximal. A word on the Emax: it is the size of the effect at its maximum, as opposed to the concentration needed.

Read-outs that look alike come from different tables or passages of the source.

Sequence of human GPR40 (O14842 whole entry): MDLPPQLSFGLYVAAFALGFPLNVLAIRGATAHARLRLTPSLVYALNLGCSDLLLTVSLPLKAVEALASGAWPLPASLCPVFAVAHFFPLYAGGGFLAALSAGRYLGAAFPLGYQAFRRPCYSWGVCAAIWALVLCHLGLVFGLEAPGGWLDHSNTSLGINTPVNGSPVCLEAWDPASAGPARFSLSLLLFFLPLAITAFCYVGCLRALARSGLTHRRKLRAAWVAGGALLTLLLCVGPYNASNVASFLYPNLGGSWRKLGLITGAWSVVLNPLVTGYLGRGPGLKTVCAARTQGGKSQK

For “3-{4-[(4-{[4-(Pyrazin-2-yloxy)-1-oxa-9-azaspiro[5.5]undec-9-yl]methyl}benzyl)oxy]phenyl}propanoic acid dihydrochloride [Compound 4a]”, the “% FFA1 activation at 5 μM” value on human GPR40 was 32.5%.
In the case of `Cl.Cl.O=C(O)CCc1ccc(OCc2ccc(CN3CCC4(CC3)CC(Oc3ncccn3)CCO4)cc2)cc1` (stereo not shown) [Compound 4b, 3-{4-[(4-{[4-(Pyrimidin-2-yloxy)-1-oxa-9-azaspiro[5.5]undec-9-yl]methyl}benzyl)oxy]phenyl} propanoic aciddihydrochloride], on human GPR40, the “% FFA1 activation at 5 μM” value amounted to 80.0%. In addition, the EC50 at human GPR40 (setting [3]) stood at 1.62 µM. At human GPR40 (maximum efficacy relative to GPR40 activation by 20 μM of GW9509, n = 2), the “% Efficacy” value came out at 80%.
As for `Cl.Cl.O=C(O)CCc1ccc(OCc2ccc(CN3CCC4(CC3)CC(Oc3ccccn3)CCO4)cc2)cc1` (stereo not shown) [Compound 4c, 3-{4-[(4-{[4-(Pyridin-2-yloxy)-1-oxa-9-azaspiro[5.5]undec-9-yl]methyl}benzyl)oxy]phenyl}propanoic acid dihydrochloride], the “% FFA1 activation at 5 μM” value at human GPR40 was determined as 61.4%. Further, the maximal effect (Emax) at human GPR40 (CHO, maximum efficacy relative to GPR40 activation by 20 μM of GW9509, n = 2) was 61%. Moreover, the EC50 at human GPR40 (Table 2, compounds investigated in this work, read-out: FFA1 EC50) was determined as 0.9 µM.
`Cl.Cl.O=C(O)CCc1ccc(OCc2ccc(CN3CCC4(CC3)CC(Oc3ccncc3)CCO4)cc2)cc1` (stereo not shown) [Compound 4d, 3-{4-[(4-{[4-(Pyridin-4-yloxy)-1-oxa-9-azaspiro[5.5]undec-9-yl]methyl}benzyl)oxy]phenyl}propanoic acid dihydrochloride]: on human GPR40, the “% FFA1 activation at 5 μM” value is on record as 13.6%. For the same molecule, on human GPR40 (setting [3]), the half-maximal effective concentration (EC50) is > 20 µM.
For the molecule `Cl.Cl.O=C(O)CCc1ccc(OCc2ccc(CN3CCC4(CC3)CC(N3CCCC3)CCO4)cc2)cc1` (stereo not shown) [Compound 4e, 3-[4-({4-[(4-Pyrrolidin-1-yl-1-oxa-9-azaspiro[5.5]undec-9-yl)methyl]benzyl}oxy)phenyl]propanoic acid dihydrochloride], the “% FFA1 activation at 5 μM” value at human GPR40 stood at 9.1%. Also, the EC50 on human GPR40 (setting [3]) was > 20 µM.
In the case of `Cl.Cl.O=C(O)CCc1ccc(OCc2ccc(CN3CCC4(CC3)CC(N3CCOCC3)CCO4)cc2)cc1` (stereo not shown) [Compound 4f, 3-[4-({4-[(4-Morpholin-4-yl-1-oxa-9-azaspiro[5.5]undec-9-yl)methyl]benzyl}oxy)phenyl]propanoic acid dihydrochloride], the “% FFA1 activation at 5 μM” value on human GPR40 came to 10.2%. The concentration for a half-maximal effect (EC50) at human GPR40 (setting [3]) was > 20 µM.
For `CNC(=O)CC1CCOC2(CCN(Cc3ccc(COc4ccc(CCC(=O)O)cc4)cc3)CC2)C1.Cl` (stereo not shown) [Compound 4g, 3-(4-{[4-({4-[2-(Methylamino)-2-oxoethyl]-1-oxa-9-azaspiro[5.5]undec-9-yl}methyl)benzyl]oxy}phenyl)propanoic acid hydrochloride], in that order: 9.9% and > 20 µM.
Regarding `Cl.Cl.O=C(O)CCc1ccc(OCc2ccc(CN3CCC4(CC3)CC(CC(=O)NCc3ccncc3)CCO4)cc2)cc1` (stereo not shown) [Compound 4h, 3-[4-({4-[(4-{2-Oxo-2-[(pyridin-4-ylmethyl)amino]ethyl}-1-oxa-9-azaspiro[5.5]undec-9-yl)methyl]benzyl}oxy)phenyl]propanoic acid dihydrochloride], the “% FFA1 activation at 5 μM” value at human GPR40 is 10.0%. Also, the EC50 at human GPR40 (setting [3]) was > 20 µM.
On to `Cl.Cl.O=C(O)CCc1ccc(OCc2ccc(CN3CCC4(CC3)CC(CC(=O)NCc3cccnc3)CCO4)cc2)cc1` (stereo not shown) [Compound 4i, 3-[4-({4-[(4-{2-Oxo-2-[(pyridin-3-ylmethyl)amino]ethyl}-1-oxa-9-azaspiro[5.5]undec-9-yl)methyl]benzyl}oxy)phenyl]propanoic acid dihydrochloride], for which the “% FFA1 activation at 5 μM” value at human GPR40 stood at 11.6%. In addition, the EC50 on human GPR40 (setting [3]) is > 20 µM.
Take `O=C(O)CCc1ccc(OCc2ccc(CN3CCC4(CCCCO4)CC3)cc2)cc1` [Compound 7]: the EC50 with FFA1 [1] (reported earlier) was > 20 µM. In addition, the “FFA1 agonist activity (in words)” value in the test with FFA1 [1] (tested earlier) was “inactive”.
`Cc1cc(OCCCS(C)(=O)=O)cc(C)c1-c1cccc(COc2ccc3c(c2)OC[C@H]3CC(=O)O)c1` [TAK-875, fasiglifam]: the half-maximal effective concentration (EC50) in the test with FFA1 [2] was 14 nM.
